Measurements as given in patent US7223864B2, “2-hydroxyethidium, methods of preparation and uses thereof” (MCW Research Foundation, Inc., priority 2004, dated 2007).
Blank lines part the entries; values can stand above or below the molecule they belong to.

Legend:
[1] = literature value used in competition analysis; cited from earlier work
[2] = tested on: X/XO-catalyzed oxidation of HE (superoxide); experiment: Oxidation of HE by xanthine/xanthine oxidase (X/XO), fluorescence; format: biochemical; details: for effect on increase in fluorescence due to X/XO-catalyzed oxidation of HE: HE 50 μM, DNA 250 μg mL^−1, SOD 20 μg mL^−1, catalase 1000 U mL^−1
Procedure: (A) Incubation mixtures consisted of HE (50 μM), xanthine (1 mM), DTPA (100 μM), and XO (0.05 U mL^−1) in aerated phosphate buffer (100 mM, pH 7.4). Reaction was initiated by the addition of XO and the fluorescence spectrum recorded after 30 min. Shown for comparison is the spectrum obtained from E^+ (50 μM) obtained under identical experimental conditions. (B) Same as (A) but in the presence of DNA (250 μg mL^−1). (C) Incubations contained HE (50 μM), DTPA (100 μM) and DNA (250 μg mL^−1) and xanthine (1 mM) or XO (0.05 U mL^−1), both in the presence and absence of SOD (20 μg mL^−1). (D) Same as (B) but in the presence of catalase (1000 U mL^−1).
(A) Incubation initially consisted of HE (50 μM), xanthine (1 mM), XO (0.025 U mL^−1) and DTPA (100 μM) in phosphate buffer (100 mM, pH 7.4). A 50 μM of DEA/NO added at the point indicated by downward arrow. After the increase in fluorescence intensity ceased, an additional bolus amount of HE was added. (B) Same as (A) except XO (0.005 U mL^−1) and DEA/NO were added at a much lower concentration (10 μM).
(§1) Fluorescence measurements—The oxidation of HE in a superoxide generating system was performed on a Shimadzu RF-5301 PC spectrofluorometer (Shimadzu Scientific Instruments Inc., Japan). Typically, excitation was at 510 nm with a 3 or 5 nm slit width and the spectra were recorded over a wavelength region of 540–800 nm using a 10 or 20 nm slit width. The fluorescence emission spectra indicate the actual color of the product of superoxide and HE reaction, E^+ and HE.

[3] = Fluorescence measurements (fluorescence spectral characteristics); format: physicochemical; details: for Fluorescence color / Emission maximum (nm): /DNA labels = in the presence of DNA; for Extinction coefficient (mM^−1)*: E^+: excitation maximum 518 nm, HE/superoxide product: excitation maximum 480 nm, slit 3 nm, emission slit 20 nm; for Emission maximum (nm): phosphate buffer (100 mM, pH 7.4)
Procedure: as §1
Superoxide generation was measured to be 8 μM/min.

[4] = Competition kinetic analysis of the reaction between HE and superoxide; details: tentative, competition with BMPO and Cu, Zn-SOD
Procedure: Kinetic analysis of the reaction between HE and superoxide—The rate constant between HE and superoxide was calculated from competition experiments. At saturating concentrations of HE, superoxide will be consumed as follows:
Dismutation of superoxide was not considered in our analysis, because at saturating concentrations of HE (compared to superoxide flux), this reaction is negligible (Vásquez-Vivar, J. et al. Free Radic. Biol. Med. 31:975–985, 2001). Thus, assuming a steady-state approximation, the rate of superoxide consumption will be equal to new fluorescent product (P) formation, defined by
[formula] where kHE is the apparent rate constant for the reaction of HE with superoxide under the experimental conditions. Therefore, the ratio between V and V0 that corresponds to the rate of new product formation in the presence and absence of scavenger, respectively, is defined by
[formula] The values of V and V0 can be calculated from variations in fluorescence intensity of new product over time. In these experiments, 5-tert-butoxycarbonyl 5-methyl-1-pyrroline N-oxide (BMPO) and bovine Cu, Zn-SOD were used to trap or dismutate superoxide. The rate constant used for the reaction between BMPO and superoxide was 77±5 M^−1 s^−1 (Rosen, G. et al. J. Biol. Chem. 277:40275–40280, 2002) and 3×10^9 M^−1 s^−1 for Cu, Zn-SOD. […]

[5] = tested on: Bovine aortic endothelial cells; experiment: Intracellular detection of superoxide with HE in menadione-treated cells; format: cell-based; details: 25 min menadione exposure, then 10 μM HE for 20 min; versus control cells
Procedure: Bovine aortic endothelial cells were treated with menadione, a redox-cycling quinone known to induce cellular oxidative stress. After 25 min of exposure, cells were washed free of extracellular menadione and treated with 10 μM of HE for 20 min. Cells were washed and fluorescent images obtained in a fluorescence microscope. […] Cells were lysed and products extracted with n-butanol. After centrifugation to separate out the cell debris, the top layer of butanol was dried, dissolved in water, and HPLC/fluorescence chromatogram was obtained (FIG. 12). The intense peak eluting at 29 min corresponds to that of 2-hydroxyethidium (FIG. 12, top trace). For better separation in biological samples, a linear increase in CH3CN concentration from 10% to 70% in 46 min was used instead of a linear increase in CH3CN concentration from 10% to 40% in 30 min. The other HPLC analysis conditions were same as described above.

[6] = biological target: T1, endothelial nitric oxide synthase (eNOS) (Bos taurus, UniProt P29473); experiment: Oxidation of HE by endothelial NOS, fluorescence; format: biochemical; details: SOD 20 μg mL^−1; BH4 10 μM; Ca^2+/CaM
T1 construct: made in house; host or cells: Escherichia coli
Procedure: (A) Incubations consisted of NADPH (0.1 mM), DTPA (100 μM), HE (50 μM), L-arginine (0.1 mM), purified eNOS (6.25 μg mL^−1), and Ca^2+ (0.2 mM)/CaM (20 μg mL^−1) in a HEPES buffer (50 mM, pH 7.4). Spectra were obtained 30 min after the addition of eNOS to different incubation mixtures. […] (B) Time-dependent changes in fluorescence of the product formed from an incubation mixture containing NADPH (0.1 mM), HE (50 μM), DTPA (100 μM), Ca^2+ (0.2 mM)/CaM (20 μg mL^−1), and purified eNOS (6.25 μg mL^−1) in a HEPES buffer (50 mM, pH 7.4). (C) Same as (B) except in the presence of SOD (20 μg mL^−1).
as §1

[7] = tested on: oxidation of HE by potassium superoxide; experiment: Oxidation of HE by potassium superoxide, fluorescence; format: biochemical; details: SOD 20 μg mL^−1, KO2 1.1 mM
Procedure: (A) Incubations consisted of HE (50 μM), DTPA (100 μM), and KO2 in the presence and absence of DNA (250 μg mL^−1) in phosphate buffer (100 mM, pH 7.4). Superoxide solution was prepared by adding 1 mg of KO2 in 1 mL of dry DMSO and vortexed vigorously for 10 min. The reaction was initiated by adding 40 μL of freshly prepared KO2 in DMSO to 0.46 mL of the above buffer (final concentration of KO2 was 1.1 mM). (B) Same as (A) but also containing SOD (20 μg mL^−1). The extent of oxidation of HE under these conditions is much less than that observed in X/XO.
as §1

Molecule: CC(C)(C)OC(=O)C1(C)CCC=[N+]1[O-] (centres unmarked) [BMPO, 5-tert-butoxycarbonyl 5-methyl-1-pyrroline N-oxide]
rate constant used for the reaction with superoxide [1]: 77 ± 5 M⁻¹ s⁻¹

Molecule: CCN(CC)[N+]([O-])=NO [DEA/NO, 2-(N,N-diethylamino)-diazenolate-2-oxide]
effect on increase of fluorescence due to superoxide-dependent oxidation of HE by X/XO ([2]; DEA/NO 10 μM, XO 0.005 U mL^−1): inhibited

Molecule: CC[n+]1c(-c2ccccc2)c2cc(N)ccc2c2ccc(N)cc21 [E^+, ethidium]
Fluorescence color [3]: Red
Extinction coefficient (mM^−1)* [3]: 232 mM⁻¹
Emission maximum (nm) [3]: 603 nm
Emission maximum (nm) ([3]; listed as ethidium): 605 nm

Molecule: CCN1c2cc(N)ccc2-c2ccc(N)cc2C1c1ccccc1 (centres unmarked) [HE, Hydroethidine (dihydroethidium)]
Fluorescence color [3]: Red
Extinction coefficient (mM^−1)* [3]: 48 mM⁻¹
Emission maximum (nm) [3]: 595 nm
rate constant between the superoxide anion and HE [4]: approximately 2.6±0.6×10^5 M^−1 s^−1

Fluorescence color [3]: Orange
Extinction coefficient (mM^−1)* [3]: 285 mM⁻¹
Emission maximum (nm) [3]: 586 nm
emission maximum ([3]; purified product, in the presence of DNA (250 μg mL^−1) in phosphate buffer): 567 nm
Molecule: CC[n+]1c(-c2ccccc2)c2cc(N)ccc2c2cc(O)c(N)cc21 [HE/superoxide product, 2-hydroxyethidium]

Molecule: CC1=CC(=O)c2ccccc2C1=O [menadione]
fluorescence of cells after HE (fluorescence microscope) [5]: intense red fluorescence

effect on oxidation of HE by eNOS [6]: inhibited the oxidation of HE
effect on increase in fluorescence due to X/XO-catalyzed oxidation of HE [2]: completely nullified
Molecule: Cu, Zn-SOD: Bovine copper, zinc superoxide dismutase
rate constant used for the reaction with superoxide [1]: 3e+09 M⁻¹ s⁻¹
effect on formation of fluorescent product from HE and potassium superoxide [7]: inhibited the formation of this product

effect on increase in fluorescence due to X/XO-catalyzed oxidation of HE [2]: increased slightly
Molecule: catalase
